Measured values from US8669253B2, “Methods for treating glaucoma and macular degeneration” (Duke University, priority 2006, dated 2014).
Where “and” joins values, the source holds several entries; their conditions need not be identical. Equal values may be shown once. Entries after “also recorded” stand apart in the source; their conditions may differ.

What was measured:
[1] = system: Rho association with RhoGDI in MDA-MB-231 cells; test: RhoGDI-Rho interaction assay (GST-RhoGDI pull-down); assay type: cell-based; conditions: 24 h, GGTI-DU40 5 μM, FTI 20 μM
Procedure: The interaction of GST-RhoGDI with endogenous Rho was assessed by protein interaction experiments. RhoGDI was generated as a glutathione-S-transferase fusion protein using a construct provided by Gary Bokoch (Scripps). The GST-RhoGDI fusion protein was incubated with treated MDA-MB-231 cell lysates (prepared identically to Gβγ partitioning above) for 1 hr at 4° C. in a total volume of 200 μl. Glutathione-sepharose was added and the mixture rotated at 4° C. for 30 min after which the affinity matrix was pelleted and washed three times with 500 μl of incubation buffer (70 mM HEPES, pH 7.5, 2 mM EDTA, 1 mM DTT, 150 mM NaCl, 0.1% Tween, 100 μM GDP, 2 mM MgCl2). Proteins retained on the matrix were solubilized in 2× Laemmli loading buffer and separated by electrophoresis on denaturing, 4-20% polyacrylamide gels. Proteins were transferred to nitrocellulose membranes for immunoblotting with an anti-RhoA antibody (Santa Cruz, sc-179).

[2] = system: Rap1 prenylation in MDA-MB-231 cells; test: Unprenylated Rap1 analysis (immunoblot); assay type: cell-based; conditions: 24 h
Procedure: To measure levels of unprenylated Rap1 in cells, whole cell lysates of MDA-MB-231 cells (prepared identically to Gβγ partitioning above, 75 ug) were mixed with Laemmli loading buffer and boiled. Samples were then separated by electrophoresis on denaturing 4-20% polyacrylamide gels and proteins transferred to nitrocellulose membranes for immunoblotting with antisera specific for the unprenylated form of Rap1 (Santa Cruz, sc-1482, goat). Sample loading was verified by reprobing blots with antisera for total Rap1 (Santa Cruz, sc-65, rabbit).

[3] = system: MDA-MB-231 cells; test: Thrombin-induced cell rounding; assay type: cell-based; conditions: 24 h pretreatment, GGTI-DU40 5 μM, SN-DU40 and FTI 20 μM, thrombin 20 min
Procedure: For the experiments assessing thrombin effects on cell morphology, MDA-MB-231 cells were plated onto glass-bottom microwell dishes at 10-20% confluence and grown for 18-24 h in the presence of serum. Cells were then washed once with PBS and media replaced with serum-free media (DMEM) including indicated compounds and incubated an additional 24 h. Cells were then imaged, treated with thrombin (1 U/mL for 20 min), and imaged again.

[4] = system: GFP-H-Ras in MDCK cells; test: Localization of GFP-H-Ras in MDCK cells; assay type: cell-based; conditions: 20 μM, 24 h
Procedure: (§1) MDCK cells stably expressing GFP-H-Ras were a gift from Mark Philips (New York University School of Medicine). Ras-CVLL was cloned into pEGFP (Clontech) and used to transfect MDCK cells. Stable clones were then selected using […] Geneticin and expression confirmed by analysis of GFP expression as visualized by fluorescence microscopy. MDCK cells were always cultured as a monolayer in DMEM with 10% FBS. For drug treatment experiments, cells were plated onto glass-bottom microwell dishes (MatTek Corp, Ashland, Mass.) and experiments initiated approximately 24 h after cells reached confluence. All compounds tested were dissolved in DMSO and added to cells at a final DMSO concentration of 0.02%.
Assessment of receptor independent cell rounding was accomplished using adenovirus expressing the activated mutant of Gα12, Gα12QL (31). MDA-MB-231 cells were plated onto glass-bottom microwell dishes at 60% confluence and grown for 18-24 h in the presence of serum. […] Following an additional 12 h incubation, cells were imaged using brightfield and GFP fluorescence microscopy. Cell images were acquired using an Eclipse TE300 microscope (Nikon) using either an oil immersion lens at 600× (for fluorescence of MDCK cells) or a plan fluor lens at 200× (for MBA-321 cells) and a SPOT digital camera (Diagnostic Instruments, Sterling Heights, Mich.) employing SPOT RT 3.02 software.

[5] = system: GFP-Ras-CVLL in MDCK cells; test: Localization of GFP-Ras-CVLL in MDCK cells; assay type: cell-based; conditions: for localization of Ras-CVLL: 20 μM, 24 h
Procedure: as §1
(§2) Assessment of receptor independent cell rounding was accomplished using adenovirus expressing the activated mutant of Gα12, Gα12QL (31). MDA-MB-231 cells were plated onto glass-bottom microwell dishes at 60% confluence and grown for 18-24 h in the presence of serum. Cells were then washed once with PBS and media replaced with serum-free media (DMEM) including any indicated compounds and incubated 6 h before addition of recombinant adenovirus. Following an additional 12 h incubation, cells were imaged using brightfield and GFP fluorescence microscopy. Cell images were acquired using an Eclipse TE300 microscope (Nikon) using either an oil immersion lens at 600× (for fluorescence of MDCK cells) or a plan fluor lens at 200× (for MBA-321 cells) and a SPOT digital camera (Diagnostic Instruments, Sterling Heights, Mich.) employing SPOT RT 3.02 software.

[6] = system: Gβγ in MDA-MB-231 cells; test: Gβγ membrane partitioning; assay type: cell-based; conditions: 24 h
Procedure: MDA-MB-231 cells were grown in 10 cm dishes and treated exactly as in the thrombin cell rounding assay. Following drug treatment in serum free media, cells were harvested and lysed using ice cold hypotonic lysis buffer (70 mM HEPES pH 7.4, 2 mM EDTA, 1 mM DTT, and protease inhibitors). Following sonication, the whole cell lysate (75 μg protein) was centrifuged at 100,000×g for 45 min. Both the supernatant (S100) and pellet (P100) fractions were processed on 4-20% SDS-polyacrylamide gels and proteins transferred to nitrocellulose membranes for immunoblot analysis.

[7] = system: organ cultured anterior segments of porcine eyes; test: Aqueous humor outflow facility in organ cultured, perfused anterior segments; conditions: 10 μM or 25 μM, perfused for 24 to 96 hours, n=8, change from baseline facility
Procedure: (§3) Methods: A selective inhibitor of GGTase-I (GGTI-DU40) was tested in this study to investigate its effects on actin cytosketal integrity, cell adhesions, cell-cell junctions, myosin II phosphosphorylation, and membrane localization of Rho, Rap and G-beta/gamma in trabecular meshwork (TM) cells, using immunofluorescence detection and immunobloting analysis. The effects of GGTI-DU40 on aqueous humor outflow were determined using organ cultured, perfused anterior segments of porcine eyes.
GGTI-396586 was perfused in organ cultured anterior segments of enucleated porcine eyes at a constant flow at 37° C. Changes in aqueous humor outflow facility were determined. Values are expressed as percent change in outflow facility from baseline facility.

[8] = system: MDA-MB-231 cells; test: Receptor independent cell rounding by Gα12QL expression; assay type: cell-based
Procedure: as §2

[9] = system: porcine TM primary cell cultures; test: TM cell morphology, actin cytoskeleton and focal adhesions; assay type: cell-based; conditions: 5 to 40 μM, 6 hours, 10% serum
Procedure: as §3
The porcine TM primary cell cultures were treated with GGTI compounds in the presence of 10% serum for 6 hours and recorded for the changes in cell morphology (phase contrast microscope), actin cytoskeletal organization (phalloidin staining) and focal adhesions (vinculin staining).

[10] = target: T1, GGTase-II (Rab geranylgeranyltransferase) (Bos taurus, UniProt Q5E9B3); test: GGTase-II activity assay (bovine brain cytosol, Rab5a substrate); assay type: biochemical; conditions: concentration range tested
T1 construct: bovine brain cytosol (200 μg protein) as the enzyme source; from tissue; host or cells: bovine brain cytosol
T1 sequence (Q5E9B3 1-331): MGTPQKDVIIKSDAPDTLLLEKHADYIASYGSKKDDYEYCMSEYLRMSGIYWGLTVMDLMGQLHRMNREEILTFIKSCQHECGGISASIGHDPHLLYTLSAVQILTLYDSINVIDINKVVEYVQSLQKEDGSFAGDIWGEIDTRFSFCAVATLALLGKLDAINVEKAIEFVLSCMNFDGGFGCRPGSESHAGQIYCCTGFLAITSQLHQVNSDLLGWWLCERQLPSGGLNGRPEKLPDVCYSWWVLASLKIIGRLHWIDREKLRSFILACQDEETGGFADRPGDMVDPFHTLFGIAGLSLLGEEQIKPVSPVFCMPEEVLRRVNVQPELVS
Procedure: GGTase-II activity was measured used bovine brain cytosol (200 μg protein) as the enzyme source and purified GST-tagged Rab5a as the protein substrate. The pGEX-Rab5a construct was a gift from Adrienne Cox (University of North Carolina). The assay was performed identically to that described above for the CaaX prenyltransferases except for the enzyme source and protein substrate and that the reaction time was increased to for 30 min.

[11] = target: T2, Icmt (Homo sapiens, UniProt O60725); test: Icmt assay; assay type: biochemical; conditions: concentration range tested
T2 construct: made in house; host or cells: Sf9 (membrane preparation)
T2 sequence (O60725 whole entry): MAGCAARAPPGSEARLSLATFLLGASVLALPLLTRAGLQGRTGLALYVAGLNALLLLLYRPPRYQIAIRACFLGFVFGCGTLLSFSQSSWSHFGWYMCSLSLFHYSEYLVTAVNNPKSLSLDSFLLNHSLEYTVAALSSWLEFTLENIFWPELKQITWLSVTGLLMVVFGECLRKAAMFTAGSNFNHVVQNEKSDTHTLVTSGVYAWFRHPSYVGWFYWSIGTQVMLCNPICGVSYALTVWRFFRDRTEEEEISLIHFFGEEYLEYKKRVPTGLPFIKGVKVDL
Procedure: Icmt assays were performed as described previously (27). Briefly, reactions were performed using biotin-S-famsyl-L-cysteine (4 μM) as a substrate and ^3H-AdoMet (5 μM, 7.5 Ci/mmol) as a methyl donor. Reactions were initiated by the addition of Sf9 membranes containing recombinant human Icmt (2 μg totoal protein) in the presence and absence of inhibitors. Reactions were carried out at room temperature for 20 min, and product formation determined.

[12] = system: Rho, Rap and G-beta/gamma in trabecular meshwork (TM) cells; test: Membrane localization of Rho, Rap and G-beta/gamma in TM cells; assay type: cell-based, porcine; conditions: drug-treated TM cells
Procedure: as §3

[13] = target: T3, FTase (Homo sapiens, UniProt P49356); test: FTase enzyme assay (3H-FPP incorporation into H-Ras); assay type: biochemical, mammalian
T3 construct: made in house; host or cells: Sf9 cells
Procedure: (§4) FTase and GGTase-I activities were determined by following incorporation of radiolabeled isoprenoid from ^3H-FPP and ^3H-GGPP into Ras proteins as described previously (28). Briefly, purified mammalian FTase or GGTase-I (50 ng, expressed in Sf9 cells) (29, 30) were used to initiate reactions containing 0.5 μM FPP or GGPP, respectively and 1 μM of the appropriate purified His-tagged Ras substrates (H-Ras for FTase; Ras-CVLL for GGTase-I). Where indicated in the appropriate Figure legend, inhibitors were added at the indicated concentrations. Final DMSO concentration was 2% for all samples. Reactions were carried out for 10 min at 30° C. before precipitation and product determination. Kinetic assays in which GGPP concentration was varied employed 5 ng GGTase-I, and reactions were carried out for five min to prevent GGTase-I concentration from exceeding GGPP concentration.

[14] = system: myosin light chain (MLC) phosphorylation in porcine primary TM cells; test: Myosin light chain phosphorylation in TM cells; assay type: cell-based; conditions: 6 hours, 10% serum
Procedure: as §3
Porcine primary TM cells were treated with GGTI compounds for 6 hours in the presence of 10% serum and the cell lysates were analyzed for the changes in myosin light chain (MLC) phosphorylation using phosphospecific-anti-MLC antibody.

[15] = system: MDA-MB-231 cells; test: Thrombin-induced calcium mobilization (Fura-2); assay type: cell-based; conditions: 5 μM, 24 h
Procedure: For the experiments assessing thrombin-induced calcium flux, MDA-MB-231 were plated on glass coverslips and treated similarly to that described for the thrombin rounding experiments. Calcium flux was measured 24 h after withdrawal of serum and addition of inhibitors using the calcium-sensitive dye Fura 2-AM (Molecular Probes Inc)(32). MDA-MB-231 cells were dye loaded for 1 h with 2.5 μM Fura-2 AM in Hanks balanced salt solution (HBSS, supplemented with 10 mM glucose and 0.1% BSA). After dye loading, the coverslips were placed in a temperature controlled recording chamber and superfused with Hanks solution. Cells were excited alternately at 340 and 380 nm and fluorescence emission at 510 nm was measured every four sec during the course of each experiment. After baseline recording for 2 min, thrombin (1 U/mL) was superfused into the bath chamber for 1 min (˜20 mL), followed by washout. Data is presented after baseline subtraction to show thrombin dependent calcium flux. Fluorescence measurements were acquired using a DeltaScan Illumination System (Photon Technology International (PTI), South Brunswick, N.J.) running on FELIX 1.4 software.

[16] = target: T4, GGTase-I (Homo sapiens, UniProt P53609); test: GGTase-I enzyme assay (3H-GGPP incorporation into Ras-CVLL); assay type: biochemical, mammalian
T4 construct: made in house; host or cells: Sf9 cells
Procedure: as §4
Graphing and curve fitting were performed using Prism (GraphPad, SanDiego Calif.). Substrate-velocity curves were fit to the Michaelis-Menten equation, while double-reciprocal plots were fit using linear regression. The Ki for GGTI-DU40 was calculated using nonlinear regression and shared parameter curve fitting for all inhibitor concentrations, the velocity equation used was v=Vmax[S]/(Km(1+([I]/Ki))+[S]).

CC[C@H](C)[C@@H](CO[C@@H](Cc1ccccc1)C(=O)N[C@@H](CCS(C)(=O)=O)C(=O)OC(C)C)NC[C@@H](N)CS [L-744,832, reference compound]
ability of Rho proteins to associate with RhoGDI [1]: no effect
level of unmodified (unprenylated) Rap1 [2]: no effect
thrombin-stimulated cell rounding [3]: normal rounding
localization of H-Ras [4]: almost complete mislocalization
localization of Ras-CVLL [5]: no detectable mislocalization

CSCCc1c(-c2cccnc2)nn(-c2ccc(Cl)c(Cl)c2)c1OCCCC(=O)N[C@@H](Cc1ccccc1)C(N)=O [GGTI-DU40, N—[(S)-1-Carbamoyl-2-phenylethyl]-4-[2-(3,4-dichlorophenyl)-4-(2-methylsulfanylethyl)-5-pyridin-3-yl-2-H-pyrazol-3-yloxy]butyramide]
membrane-associated Gβγ [6]: partial loss
increase in aqueous outflow facility [7]: 30%
rounding of cells elicited by expression of Gα12QL [8]: blocked
actin stress fibers and focal adhesions [9]: reversible decreases
changes in TM cell morphology [9]: dose dependent
ability of Rho proteins to associate with RhoGDI [1]: almost complete loss
level of unmodified (unprenylated) Rap1 [2]: dose dependent increase
activity against GGTase-II [10]: no detectable activity
activity against Icmt methyltransferase [11]: no detectable activity
thrombin-stimulated cell rounding [3]: dramatically inhibited
membrane localization of Rho, Rap and G-beta/gamma [12]: impaired
localization of H-Ras [4]: without an effect
IC50 [13]: > 2000 nM
myosin light chain phosphorylation [14]: decreased significantly; also recorded: significantly reduced
localization of Ras-CVLL [5]: complete mislocalization
lowest inhibitor concentration at which Ras-CVLL mislocalization could be detected ([5]; data not shown): 2 µM
ability of thrombin to elicit calcium mobilization [15]: unaffected
total calcium flux versus control ([15]; integration of time with fluorescence): no statistical difference
FTase/GGTase-I selectivity ratio [16]: > 250
mode of inhibition with respect to the protein substrate ([16]; GGPP fixed, Ras-CVLL varied, 2-20 nM inhibitor): competitive inhibitor
mode of inhibition with respect to GGPP ([16]; Ras-CVLL fixed, GGPP varied, 2-20 nM inhibitor): uncompetitive inhibitor
time-dependent inhibition of GGTase-I ([16]; data not shown): no such behavior was observed
Ki ([16]; protein substrate competition data, nonlinear regression, read-out: Ki for GGTase-I inhibition): < 1 nM and 0.78 nM and 0.8 nM
IC50 ([16]; purified GGTase-I): 8.24 nM
